Like-named read-outs stand apart in the source and are kept apart here.

In test [1] the target is T1, off-target kinases (Homo sapiens, UniProt Q8IWQ3).
T1 sequence (Q8IWQ3 1-736): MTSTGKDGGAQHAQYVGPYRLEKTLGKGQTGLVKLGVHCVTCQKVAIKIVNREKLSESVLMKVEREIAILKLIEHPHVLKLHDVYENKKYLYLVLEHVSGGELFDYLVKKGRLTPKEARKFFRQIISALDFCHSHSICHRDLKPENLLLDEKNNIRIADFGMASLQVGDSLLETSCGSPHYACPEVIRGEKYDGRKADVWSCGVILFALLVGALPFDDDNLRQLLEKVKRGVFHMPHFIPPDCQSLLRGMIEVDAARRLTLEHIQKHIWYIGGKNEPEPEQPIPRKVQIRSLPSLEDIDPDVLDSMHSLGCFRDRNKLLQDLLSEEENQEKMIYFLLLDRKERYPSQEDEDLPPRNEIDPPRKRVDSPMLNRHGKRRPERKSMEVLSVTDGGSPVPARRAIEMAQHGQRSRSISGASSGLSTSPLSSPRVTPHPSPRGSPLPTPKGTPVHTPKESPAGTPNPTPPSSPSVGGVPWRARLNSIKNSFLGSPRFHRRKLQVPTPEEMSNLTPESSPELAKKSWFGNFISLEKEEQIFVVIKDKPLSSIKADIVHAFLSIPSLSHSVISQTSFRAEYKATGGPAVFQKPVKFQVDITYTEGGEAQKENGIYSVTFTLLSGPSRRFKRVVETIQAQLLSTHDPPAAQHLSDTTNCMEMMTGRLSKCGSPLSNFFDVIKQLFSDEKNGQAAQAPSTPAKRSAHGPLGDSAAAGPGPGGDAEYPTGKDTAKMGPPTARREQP
Description: SelectScreen Kinase Profiling, single point inhibition and IC50 for off-target kinases. Format: biochemical. The conditions noted are these: BRSK2, LanthaScreen Binding. (TR-FRET usually uses a lanthanide donor and a delayed reading to cut background.)

The target of test [2] is T2, off-target kinases (Homo sapiens, UniProt O95835).
T2 sequence (O95835 1-1130): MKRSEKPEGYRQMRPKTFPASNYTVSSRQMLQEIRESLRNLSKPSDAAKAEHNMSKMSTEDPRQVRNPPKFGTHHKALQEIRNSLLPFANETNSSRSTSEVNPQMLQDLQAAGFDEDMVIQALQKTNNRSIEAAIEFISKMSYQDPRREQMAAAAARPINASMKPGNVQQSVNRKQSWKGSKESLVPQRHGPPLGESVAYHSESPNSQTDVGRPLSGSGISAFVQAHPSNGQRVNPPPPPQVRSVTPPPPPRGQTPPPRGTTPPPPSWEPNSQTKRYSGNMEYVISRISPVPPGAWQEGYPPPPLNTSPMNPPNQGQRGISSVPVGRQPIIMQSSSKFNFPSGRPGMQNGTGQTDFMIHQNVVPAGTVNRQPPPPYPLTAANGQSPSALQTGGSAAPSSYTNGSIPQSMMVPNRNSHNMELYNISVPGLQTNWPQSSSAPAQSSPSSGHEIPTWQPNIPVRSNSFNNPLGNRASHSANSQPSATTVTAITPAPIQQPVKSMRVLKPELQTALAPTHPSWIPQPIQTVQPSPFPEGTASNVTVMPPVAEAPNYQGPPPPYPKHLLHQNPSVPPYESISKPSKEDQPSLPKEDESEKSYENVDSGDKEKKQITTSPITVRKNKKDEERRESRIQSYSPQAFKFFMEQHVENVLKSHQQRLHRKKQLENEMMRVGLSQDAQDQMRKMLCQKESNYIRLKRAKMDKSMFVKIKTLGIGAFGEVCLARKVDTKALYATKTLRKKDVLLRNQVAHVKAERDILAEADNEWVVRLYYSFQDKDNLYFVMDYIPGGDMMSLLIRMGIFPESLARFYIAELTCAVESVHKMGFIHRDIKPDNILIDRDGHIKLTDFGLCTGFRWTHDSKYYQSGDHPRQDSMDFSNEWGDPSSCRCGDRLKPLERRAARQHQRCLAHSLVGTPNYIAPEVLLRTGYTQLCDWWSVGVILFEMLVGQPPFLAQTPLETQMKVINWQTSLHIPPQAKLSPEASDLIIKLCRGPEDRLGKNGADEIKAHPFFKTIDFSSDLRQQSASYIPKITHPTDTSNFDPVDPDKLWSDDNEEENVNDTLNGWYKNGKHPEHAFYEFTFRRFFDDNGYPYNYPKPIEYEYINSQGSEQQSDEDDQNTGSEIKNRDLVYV
Described as above. The conditions noted are these: LATS1, LanthaScreen Binding. Format: biochemical.

Regarding `N#Cc1cc(-c2ncnc(Nc3ccc(N4CCN(C5COC5)CC4)cc3)n2)ccc1OC1CCOCC1` [Compound 1, 5-(4-((4-(4-(oxetan-3-yl)piperazin-1-yl)phenyl)amino)-1,3,5-triazin-2-yl)-2-((tetrahydro-2H-pyran-4-yl)oxy)benzonitrile], the inhibition (as a rule, the relative decrease from the control value, in per cent) is 16% in test [1] (read-out: % Inhibition 1); 17% in test [1] (read-out: % Inhibition 2); 17% in test [1] (read-out: % Inhibition Avg); -5% in test [2] (read-out: % Inhibition 1); 1% in test [2] (read-out: % Inhibition 2); -2% in test [2] (read-out: % Inhibition Avg).

These data come from US11572590B2, “Methods for evaluating tumor cell spheroids using 3D microfluidic cell culture device” (Dana-Farber Cancer Institute, Inc., priority 2017, dated 2023).
